The values that follow are results of earlier work, collected in publication PMC5992566 (Nanomedicine, 2018).

For this series the following is noted: after a single parenteral dose.

The structures appear in SMILES notation.

As to `C[C@H]1CO[C@@H]2Cn3cc(C(=O)NCc4ccc(F)cc4F)c(=O)c(O)c3C(=O)N12` [Cabotegravir, cabotegravir], the Half-life is 21 to 50 days.
